The values below come from EP0698347B1, “Food composition containing reuterin” (BIOGAIA BIOLOGICS AB, priority 1987, dated 1988).

The test system of experiment [1] is E. coli. Description: Co-culture of E. coli with and without L. reuteri 1063 on various substrates (Table 1). It counts as cell-based. Set-up: % Inhibition: concentration or dose not given beside the values. To be noted: for E. coli (CFU/ml) after 6 hours: substrate 20 mM (C6, C5) or 40 mM (C3), inoculum 5 x 10^6 CFU per ml E. coli. On the procedure:
(§1) Conditions under which reuterin is produced have been determined. Reuterin is not produced under aerobic conditions (atmospheric oxygen concentration) but under reduced oxygen tension. It is produced when L. reuteri is cultured anaerobically (or semi-anaerobically in still culture) in the MIC assay medium described above containing 20-500 mM glycerol or glyceraldehyde in place of glucose as the major carbon and energy source. […] Twenty other substances, including hexoses, hexitols, pentoses, pentitols, disaccharides and a variety of phosphorylated and non-phosphorylated C3-substances, were tested for their ability to support reuterin production. […] The medium, containing a substrate at 20 mM (C6 and C5 substrates) or 40 mM (C3 substrates) concentrations, was inoculated with 5 x 10^6 colony-forming units (CFU) per ml E. coli with and without L. reuteri. Only glycerol and glyceraldehyde yielded reuterin. Also, réuterin production from glycerol is inhibited when glucose or another growth substrate is included in the production medium. The results shown in Table 2 indicate the percent inhibition in viable count of a 6.7 x 10^7 CFU per ml E. coli inoculum by supernatant fractions of L. reuteri grown on various indicated substrates at 40 mM concentrations.

The test system of experiment [2] is E. coli. Description: Inhibition of E. coli by supernatant fractions of L. reuteri grown on various substrates (Table 2). It counts as cell-based. The method, then:
as §1

Experiment [3] relates to spoilage pseudomonads. Description: Fish fillet storage: spoilage bacteria count (Table 8). To be noted: fish fillets dipped in treatment solution, 8°C for 4 days. On the procedure: Lactobacillus reuteri plus glycerol constitutes a novel effective food preservation process. Evidence for this was obtained using storage of fish as a model system. This study was conducted as follows: Fish fillets (Herring, Clupea harengas) were dipped in the following treatment solution: • control: no treatment • glycerol: 250 mM glycerol solution • strain 1068: 250 mM glycerol solution containing 4x10^9 CFU per ml L. reuteri 1068 (a non-reuterin producing strain) • strain 1063: 250 mM glycerol solution containing 4x10^9 CFU per ml L. reuteri 1063 The fillets (2 parallel samples each) were kept in large Petri dishes at 8°C for 4 days in a refrigerator. The ammonia content and CFU of relevant bacteria (i.e., spoilage pseudomonads and added lactobacilli) were then analyzed to evaluate the shelf-life of the food product. […] L. reuteri 1068 did so to some extent but not enough to prevent spoilage which is generally indicated by a log 8.4 pseudomonad count. • (iii) the retarding effect of L. reuteri and glycerol on spoilage bacteria has a strong reducing effect on ammonia liberation. • (iv) a food preservative effect of L. reuteri plus glycerol is indicated for all kinds of food spoilage.

The nature of experiment [4]: Antimicrobial activity of pure commercial preparations. It counts as cell-based. To be noted: concentrations as high as 0.125M. From the text:
Reuterin Is a Product of Glycerol Fermentation. Reuterin is a new product associated with the same type of heterolactic fermentation of glycerol that occurs in other Lactobacillus species. Reuterin can be isolated and identified as a product of glycerol fermentation by L. reuteri using HPLC.

`OCC(O)CO` [Glycerol]: the “E. coli (CFU/ml) after 6 hours” value is 5.5x10^4 CFU/ml in experiment [1] (Addition of L. reuteri 1063: +) and 1.2x10^7 CFU/ml in experiment [1] (Addition of L. reuteri 1063: -). The % Inhibition (commonly the percentage by which the read-out fell short of the control) in experiment [1] (E. coli with versus without L. reuteri 1063 on the substrate, 6 hours) is given as 99%; in experiment [2] (percent inhibition in viable count of 6.7 x 10^7 CFU per ml E. coli inoculum by supernatant fraction, substrate 40 mM), 99.9%. Besides, the “Growth of E. coli presence of centrifuged culture medium CFU/ml after 6 hours” value in experiment [2] (supernatant fraction of L. reuteri grown on the substrate at 40 mM, inoculum 6.7 x 10^7 CFU per ml E. coli) is reported as 4.5x10^5 CFU/ml. In addition, in experiment [3], the “Log CFU bacteria per g Pseudomonads (kings agar)” value amounted to 9.4 Log CFU bacteria per g. Further, in experiment [4], the antimicrobial activity entry was “essentially devoid of antimicrobial activity”.
